Experimental data reported in paper PMC7011943, “Discovery of novel PDE9A inhibitors with antioxidant activities for treatment of Alzheimer’s disease” (Journal of Enzyme Inhibition and Medicinal Chemistry, 2017).
Entries after “also recorded” stand apart in the source; their conditions may differ. Where two headings read alike, the source gives them in different places.

Legend:
[1] = target: T1, PDE9A (Homo sapiens, UniProt O76083); experiment: Enzymatic assay against PDE9A (3H-cGMP substrate); type: biochemical
T1 construct: pET-PDE9A2 plasmid (catalytic domain, 181–506); made in house; host or cells: E. coli BL21 (Codonplus)
T1 sequence (O76083 241-566): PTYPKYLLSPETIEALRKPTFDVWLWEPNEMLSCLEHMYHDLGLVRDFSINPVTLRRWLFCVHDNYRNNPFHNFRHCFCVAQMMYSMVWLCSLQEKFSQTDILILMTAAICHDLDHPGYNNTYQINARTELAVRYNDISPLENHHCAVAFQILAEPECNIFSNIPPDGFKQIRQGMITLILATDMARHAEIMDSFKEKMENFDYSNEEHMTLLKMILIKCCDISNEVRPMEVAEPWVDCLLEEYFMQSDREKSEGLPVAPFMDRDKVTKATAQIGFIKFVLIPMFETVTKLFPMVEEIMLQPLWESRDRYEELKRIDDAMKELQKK
Description: The E. coli cells carrying pET-PDE9A2 was grown in LB medium (containing 100 μg/ml ampicillin and 0.4% glucose) at 37 °C until OD600 = 0.6–0.8. 0.1 mM iso-propyl-β-D-thiogalactopyranoside was added to induce the PDE9A2 protein expression at 15 °C for 20 h. PDE9A was purified on the nickel nitriloacetic acid (Ni-NTA) column (Qiagen, Hilden, Germany) and eluted with 0.25 M imidazole. The concentration of PDE9A was estimated by the absorbance at 280 nm (calculated using ProtParam software, http://web.expasy.org/protparam). A typical batch of purification yielded 30–60 mg PDE9A2 protein from a 0.5 l cell culture. The PDE9A2 proteins had purity greater than 90% as shown by sodium dodecyl sulphate polyacrylamide gel electrophoresis (SDS-PAGE).
The enzymatic activities of the catalytic domain of PDE9A2 were measured by using ^3H-cGMP as the substrate and the assay buffer of 50 mM Tris-HCl (pH 8.0), 10 mM MgCl2, and 1 mM DTT. Each assay used ^3H-cGMP 20,000–30,000 cpm. The reaction was carried out at room temperature (25 °C) for 15 min and then terminated by addition of 0.2 M ZnSO4. The reaction product was precipitated by 0.2 N Ba(OH)2, whereas unreacted ^3H-cGMP remained in the supernatant. […] At least eight concentrations of inhibitors were measured parallel in each measurement, resulting an inhibition curve to calculate the IC50 value of inhibitors by nonlinear regression. Each measurement was repeated at least three times. The mean and standard deviation statistics of these three IC50 values were used as the final IC50 value and the corresponding SD.

[2] = Antioxidant activity, oxygen radical absorbance capacity fluorescein (ORAC-FL) method; conditions: for ORAC: samples 1–10 μM
Description: The antioxidant activity was determined by the modified oxygen radical absorbance capacity fluorescein (ORAC-FL) method[31]^,[32]. All the assays were diluted with 75 mM phosphate buffer (pH 7.4). The final reaction mixture was 200 μl. Test compound (20 μl) and fluorescein (120 μl, 150 nM final concentration) were placed in the wells of a black 96-well plate. After the mixture was incubated at 37 °C for 15 min, AAPH solution (60 μl, 12 mM final concentration) was added. The plate was placed in a Spectrafluor Plus plate reader (Tecan, Crailsheim, Germany) and the fluorescence was recorded every minute for 4 h with excitation at 485 nm and emission at 535 nm. Trolox was used as standard (1–8 μM, final concentration). A blank (FL + AAPH) in phosphate buffer instead of test compounds and trolox calibration were performed in each assay. The samples were measured at different concentration (1–10 μM). All the reaction mixture was prepared fourfold and at least three independent assays were performed for each sample. Fluorescence in time course was normalised on basis of the blank (without antioxidants). The ORAC-FL values were calculated as the reported method. ORAC-FL values were expressed as trolox equivalents.

[3] = system: PDE1B; experiment: Enzymatic assay against PDE1B (3H-cGMP substrate); type: biochemical; conditions: estimated from inhibition at 1 μM
Description: (§2) The enzymatic activities of PDE1B and PDE8A were assayed by using ^3H-cGMP and ^3H-cAMP as the substrates, respectively, following the same procedure for PDE9A.

[4] = target: T2, PDE1B (Homo sapiens, UniProt Q01064); experiment: Enzymatic assay against PDE1B (3H-cGMP substrate); type: biochemical; conditions: 1000 nM (1 μM)
T2 construct: The catalytic domains of PDE1B (10–516) and PDE8A (480–820); made in house
T2 sequence (Q01064 10-516): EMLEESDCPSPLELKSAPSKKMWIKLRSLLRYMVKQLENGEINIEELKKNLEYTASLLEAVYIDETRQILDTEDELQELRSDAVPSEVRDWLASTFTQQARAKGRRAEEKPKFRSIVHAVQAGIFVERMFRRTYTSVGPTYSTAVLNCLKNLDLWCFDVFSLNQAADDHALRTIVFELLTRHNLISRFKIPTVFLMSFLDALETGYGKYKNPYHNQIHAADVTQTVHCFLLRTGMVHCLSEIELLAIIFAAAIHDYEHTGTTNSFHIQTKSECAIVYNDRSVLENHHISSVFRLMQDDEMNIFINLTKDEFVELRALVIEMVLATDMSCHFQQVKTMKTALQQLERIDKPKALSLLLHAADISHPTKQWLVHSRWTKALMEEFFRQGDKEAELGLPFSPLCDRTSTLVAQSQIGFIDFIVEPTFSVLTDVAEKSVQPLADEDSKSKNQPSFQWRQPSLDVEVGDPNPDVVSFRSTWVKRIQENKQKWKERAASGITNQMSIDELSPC
Description: as §2

[5] = system: SH-SY5Y cells; experiment: In vitro cell viability assay (MTT); type: cell-based, human; conditions: for cytotoxicity to SH-SY5Y cells (in words): 48 h, up to 100 μM
Description: (§1) SH-SY5Y cells were used for the cytotoxicity test by the MTT (3–(4, 5-dimethyl-2-thiazolyl)-2,5-diphenyl-2-H-tetrazoliumbromide) method. After incubation of the SH-SY5Y cells (5 × 10^3) in a 96-well plate for 24 h, compounds at concentrations of 10, 20, 40, 60, 80, and 100 μM, were added. After incubation for 48 h, MTT solution was added to each cell well and the system was further inoculated for 4 h at 37 °C. The purple formazan dye and 120 μl DMSO were added to the cells and the absorbance was measured at 570 nm using EnSpire-2300 Multimode Reader (PerkinElmer, Waltham, MA).

[6] = In vitro cell viability assay (MTT); type: cell-based, human; conditions: human, SH-SY5Y cells, 48 h incubation, read-out: cellular viability
Description: as §1

[7] = target: T3, PDE8A (Homo sapiens, UniProt O60658); experiment: Enzymatic assay against PDE8A (3H-cAMP substrate); type: biochemical
T3 construct: The catalytic domains of PDE1B (10–516) and PDE8A (480–820); made in house
T3 sequence (O60658 480-820): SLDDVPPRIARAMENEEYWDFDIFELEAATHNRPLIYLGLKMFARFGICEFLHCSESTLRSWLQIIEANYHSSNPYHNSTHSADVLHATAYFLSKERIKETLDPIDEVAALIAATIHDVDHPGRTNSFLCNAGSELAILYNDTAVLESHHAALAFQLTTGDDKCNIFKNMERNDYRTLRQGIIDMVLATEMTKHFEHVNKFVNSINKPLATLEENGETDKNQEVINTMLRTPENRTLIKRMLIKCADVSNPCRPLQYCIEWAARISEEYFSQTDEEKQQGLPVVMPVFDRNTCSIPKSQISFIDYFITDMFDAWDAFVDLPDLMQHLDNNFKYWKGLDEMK
Description: as §2

[8] = system: PDE1B; conditions: printed under head 'Inhibition of PDE1B at 1000 nM'; cited from earlier work
[9] = Table 1 and text, means of three independent determinations, read-out: IC50±SD

SMILES | IC50 [1, 9] | ORAC [2] | ORAC-FL value / antioxidant activity (in words) [2] | further results
COc1cc(/C=C/C(=O)N[C@H](C)c2nc3c(cnn3C3CCCC3)c(=O)[nH]2)ccc1O [Compound 1a, (R, E)-N-(1–(1-cyclopentyl-4-oxo-4,5-dihydro-1H-pyrazolo[3,4-d]pyrimidin-6-yl)ethyl)-3–(4-hydroxy-3-methoxyphenyl)acrylamide] | 126 ± 15 nM | 2.4 trolox equivalents | – | –
C[C@@H](NC(=O)/C=C/c1ccc(O)c(O)c1)c1nc2c(cnn2C2CCCC2)c(=O)[nH]1 [Compound 1b, (R, E)-N-(1–(1-cyclopentyl-4-oxo-4,5-dihydro-1H-pyrazolo[3,4-d]pyrimidin-6-yl)ethyl)-3–(3,4-dihydroxyphenyl)acrylamide] | 64 ± 2 nM | 2.5 trolox equivalents | – | –
COc1ccc(/C=C/C(=O)N[C@H](C)c2nc3c(cnn3C3CCCC3)c(=O)[nH]2)cc1OC [Compound 1c, (R, E)-N-(1–(1-cyclopentyl-4-oxo-4,5-dihydro-1H-pyrazolo[3,4-d]pyrimidin-6-yl)ethyl)-3– (3,4-dimethoxyphenyl)acrylamide] | 65 ± 4 nM | 0.23 trolox equivalents | low ORAC-FL values | –
COc1ccc(/C=C/C(=O)N[C@H](C)c2nc3c(cnn3C3CCCC3)c(=O)[nH]2)cc1O [Compound 1d, (R, E)-N-(1–(1-cyclopentyl-4-oxo-4,5-dihydro-1H-pyrazolo[3,4-d]pyrimidin-6-yl)ethyl)-3–(3-hydroxy-4-methoxyphenyl)acrylamide] | 83 ± 11 nM | 1.26 trolox equivalents | – | –
COc1cccc(/C=C/C(=O)N[C@H](C)c2nc3c(cnn3C3CCCC3)c(=O)[nH]2)c1 [Compound 1f, (R, E)-N-(1–(1-cyclopentyl-4-oxo-4,5-dihydro-1H-pyrazolo[3,4-d]pyrimidin-6-yl)ethyl)-3–(3-methoxyphenyl)acrylamide] | 190 ± 7 nM | 0.12 trolox equivalents | low ORAC-FL values | –
C[C@@H](NC(=O)/C=C/c1ccc(O)cc1)c1nc2c(cnn2C2CCCC2)c(=O)[nH]1 [Compound 1g, (R, E)-N-(1–(1-cyclopentyl-4-oxo-4,5-dihydro-1H-pyrazolo[3,4-d]pyrimidin-6-yl)ethyl)-3–(4-hydroxyphenyl)acrylamide] | 63 ± 3 nM | 2.9 trolox equivalents | – | –
C[C@@H](NC(=O)/C=C/c1cccc(O)c1)c1nc2c(cnn2C2CCCC2)c(=O)[nH]1 [Compound 1h, (R, E)-N-(1–(1-cyclopentyl-4-oxo-4,5-dihydro-1H-pyrazolo[3,4-d]pyrimidin-6-yl)ethyl)-3–(3-hydroxyphenyl)acrylamide] | 56 ± 7 nM | 3.3 trolox equivalents | – | fold of selectivity against PDE9 over PDE1B [3]: > 25 fold; inhibition at 1 µM [4]: 13%; IC50 ([1]; Table 2, read-out: IC50 (nM) of PDE9A): 56 ± 1 nM; cytotoxicity to SH-SY5Y cells (in words) [5]: no cytotoxicity; also recorded: not toxic; viability at 48 h, 40 µM ([6]; 40 μM): ~90%; viability at 48 h, 100 µM ([6]; 100 μM): ~70%; inhibition at 10 µM [7]: 10%; fold of selectivity against PDE9 over PDE8A ([7]; estimated from inhibition at 10 μM): > 250 fold
C[C@@H](NC(=O)/C=C/c1ccc(N(C)C)cc1)c1nc2c(cnn2C2CCCC2)c(=O)[nH]1 [Compound 1i, (R, E)-N-(1–(1-cyclopentyl-4-oxo-4,5-dihydro-1H-pyrazolo[3,4-d]pyrimidin-6-yl)ethyl)-3–(4-(dimethylamino)phenyl)acrylamide] | 133 ± 22 nM | 1.00 trolox equivalents | – | –
C[C@@H](NC(=O)/C=C/c1cccc(Cl)c1)c1nc2c(cnn2C2CCCC2)c(=O)[nH]1 [Compound 1j, (R, E)-N-3–(3-chlorophenyl)-N-(1–(1-cyclopentyl-4-oxo-4,5-dihydro-1H-pyrazolo[3,4-d]pyrimidin-6-yl)ethyl)acrylamide] | 186 ± 7 nM | 0.08 trolox equivalents | low ORAC-FL values | –
C[C@@H](NC(=O)/C=C/c1ccc(C(F)(F)F)cc1)c1nc2c(cnn2C2CCCC2)c(=O)[nH]1 [Compound 1k, (R, E)-N-(1–(1-cyclopentyl-4-oxo-4,5-dihydro-1H-pyrazolo[3,4-d]pyrimidin-6-yl)ethyl)-3–(4-(trifluoromethyl)phenyl)acrylamide] | 130 ± 6 nM | 0.02 trolox equivalents | low ORAC-FL values | –
C[C@@H](NC(=O)Cc1ccc(O)c(O)c1)c1nc2c(cnn2C2CCCC2)c(=O)[nH]1 [Compound 1l, (R, E)-N-(1–(1-cyclopentyl-4-oxo-4,5-dihydro-1H-pyrazolo[3,4-d]pyrimidin-6-yl)ethyl)-2–(3,4-dihydroxyphenyl)acetamide] | 57 ± 4 nM | 2.6 trolox equivalents | – | –
C[C@@H](NC(=O)CCCC[C@@H]1CCSS1)c1nc2c(cnn2C2CCCC2)c(=O)[nH]1 [Compound 2, N-((1N)-1–(1-cyclopentyl-4-oxo-3a, 4,5,6-tetrahydro-1H-pyrazolo[3,4-d]pyrimi–din-6-yl)ethyl)-5-((R)-1,2-dithiolan-3-yl)pentanamide] | – | 0.28 trolox equivalents | low antioxidant activity | inhibition at 1 µM [4]: 59%; cellular viability ([5]; 100 μM, 48 h incubation): no significant effect on cell viability; cytotoxicity to SH-SY5Y cells (in words) [5]: not toxic; inhibition at 10 µM [7]: 9%
Cc1c(C)c2c(c(C)c1O)CCC(C)(C(=O)N[C@H](C)c1nc3c(cnn3C3CCCC3)c(=O)[nH]1)O2 (stereo partly drawn) [Compound 3, N-((R)-1–(1-cyclopentyl-4-oxo-4,5-dihydro-1H-pyrazolo[3,4-d]pyrimidin-6-yl)ethyl) -6-hydroxy-2,5,7,8-tetramethylchromane-2-carboxamide] | > 500 nM | 0.24 trolox equivalents | – | –
COc1cc(/C=C/C(=O)O)ccc1O [Ferulic acid, reference compound] | – | 1.6 trolox equivalents | – | –
C[C@@H]1CN(Cc2ncccn2)C[C@H]1c1nc2c(cnn2C2CCOCC2)c(=O)[nH]1 [PF-04447943, 6-[(3S,4S)-4-Methyl-1-(pyrimidin-2-ylmethyl)pyrrolidin-3-yl]-1-(tetrahydro-2H-pyran-4-yl)-1,5-dihydro-4H-pyrazolo[3,4-d]pyrimidin-4-one] | – | – | – | IC50 [8]: 1390 nM
